Measurements from article PMC9635468, “Biological evaluation, docking studies, and in silico ADME prediction of some pyrimidine and pyridine derivatives as potential EGFR^WT and EGFR^T790M inhibitors” (Journal of Enzyme Inhibition and Medicinal Chemistry, 2022).
Values after ≈ are worked out from the molar mass of the structure shown.

Legend:
MCF7 = assay: Cytotoxicity screening, SRB assay, MCF7; type: cell-based, human; details: for MCF7 IC50: 48 h; for IC50: Homo sapiens, MCF7, 48 h
Protocol: (§1) In this study, a panel of cell lines was examined for their chemosensitivity. Different concentrations of the synthesised pyridines and pyrimidine derivatives were used in this study (5, 12.5, 25, and 50 µg/mL) for all the examined cell lines. In this study, breast tumour cell line (MCF7), hepatocellular carcinoma cell line (HEPG2), larynx cell line (HEP2), lung cancer cell line (H460), colon cancer cell line (HCT116 and Caco2), hypopharyngeal cell line (FADU), and normal Vero cell line were applied. The full methodology is described in the Supplementary data (SI 1).
(§2) SI 1: Cytotoxicity screening against human cancer cell lines
(§3) In this study, a panel of cell lines was examined for their chemosensitivity. Different concentrations of the synthesized pyridines and pyrimidines derivatives were used in this study (5, 12.5, 25, and 50 µg/ml) for all the examined cell lines. The most sensitive cell line to the treatment regimen was selected and subjected to further investigations to explore the mechanism of this interaction. Human breast tumor cell line (MCF7), human hepatocellular carcinoma cell line (HEPG2), human larynx cell line (HEP2), human lung cancer cell line (H460), human colon cancer cell line (HCT116 and Caco2), human hypopharyngeal cell line (FaDu), and normal cell line Vero were used in this study. It was obtained from the American Type Culture Collection (ATCC, Minnesota, USA). The tumor cell line was maintained at National Cancer Institute (NCI), Cairo, Egypt.
(§4) The antitumor activities of pyridines and pyrimidines derivatives and all tested cell lines were evaluated by sulphorhodamine-B (SRB) assay 1. Briefly, cells were seeded at a density of 3 × 10^3 cells/well in 96-well microtiter plates. They were left to attach for 24 h before incubation with drugs. Next, cells were treated with different concentrations of 5, 12.5, 25, and 50 µg/ml for MCF7, HEPG2, HEP2, HCT116, Caco2, H460, FaDu, and Vero cells. For each concentration, three wells were used and incubation was continued for 48 h. DMSO was used as a control vehicle (1 % v/v). At the end of incubation, cells were fixed with 20 % trichloroacetic acid and stained with 0.4 % SRB dye. The optical density (O.D.) of each well was measured spectrophotometrically at 570 nm using an ELISA microplate reader (TECAN sunrise™, Germany). The mean survival fraction at each drug concentration was calculated as follows: […]
(§5) O.D. of the treated cells/O.D. of the control cells. The IC50 (concentration that produces 50% of cell growth inhibition) value of each drug was calculated using sigmoidal dose-response curve-fitting models (Graph Pad Prizm software, version 5) 1.

VERO = assay: Cytotoxicity screening, SRB assay, normal Vero cells; type: cell-based; details: 48 h, normal cell line; for IC50: Chlorocebus sabaeus, Vero
Protocol: as §1, §2, §3, §4, §5

FADU = assay: Cytotoxicity screening, SRB assay, FADU; type: cell-based, human; details: 48 h; for IC50: Homo sapiens, FaDu
Protocol: as §1, §2, §3, §4, §5

HEPG2 = assay: Cytotoxicity screening, SRB assay, HEPG2; type: cell-based, human; details: for HEPG2 IC50: 48 h; for IC50: Homo sapiens, HepG2, 48 h
Protocol: as §1, §2, §3, §4, §5

HCT116 = assay: Cytotoxicity screening, SRB assay, HCT116; type: cell-based, human; details: for HCT116 IC50: 48 h; for IC50: Homo sapiens, HCT-116, 48 h
Protocol: as §1, §2, §3, §4, §5

HEPG2 cells = assay: Cell cycle DNA index analysis by flow cytometry; type: cell-based, human; details: HEPG2, 3.8 µg/mL, 48 h; for cells in G2/M phase: control 5.57%; for cells in G0/G1: control 92.7%
[1] = test system: MCF7, H460, FADU, HEP2, HEPG2, HCT 116, Caco2, and Vero cells; assay: Oxidative stress assessment (MDA, NO, SOD, GSH); type: cell-based; details: dose IC50, 48 h
Protocol: Consequently, both compounds 8 and 14 were tested for their antioxidant activity in MCF7, H460, FADU, HEP2, HEPG2, HCT 116, Caco2, and Vero cells, and the dose used was the IC50 in all cell lines.
SI 2: Oxidative stress assessment
SI 2A: Determination of malondialdehyde content (MDA)
Lipid peroxidation products were quantified by measuring MDA level in cell culture lysate of control and treated cells using Lipid Peroxidation (MDA) Assay Kit (Sigma Aldrich Chemical Co., St.
Louis, USA) following the manufacturer’s instructions. The MDA level was calculated relative to the corresponding protein content. The absorbance was determined at 532 nm using a spectrophotometer (Spectronic, Milton Roy Co., USA).
SI 2B: Determination of superoxide dismutase (SOD)
[…] in cell culture lysate of control and treated cells by SOD determination kit (Sigma Aldrich Chemical Co., St. Louis, USA) following the manufacturer’s instructions. SOD level was calculated relative to the corresponding protein content. The absorbance of the supernatant was determined at 450 nm using a spectrophotometer (Spectronic, Milton Roy Co., USA) 2. The experiment was carried out three independent times.
SI 2C: Determination of reduced glutathione (GSH) content
Reduced glutathione was determined by adopting Ellman’s method. MCF7 and LCC2 cells were harvested, the protein was precipitated with trichloroacetic acid, and Ellman’s reagent [5,5-dithiobis-(2-nitrobenzoic acid)] (Sigma Aldrich Chemical Co, St. Louis, USA) was added to the supernatant. The absorbance was read at 405 nm and total SH was calculated as µM of GSH/mg protein 3.
SI 2D: Determination of nitric oxide (NO) content
Nitric oxide was determined in the culture media of the control and treated cells a s described before
4. Briefly, 0.5 ml cold absolute ethanol was added to 250µl culture media then left for 48 h at 4 °C to attain complete protein precipitation followed by centrifugation at 13,000 rpm for 1 h using a cooling centrifuge.
100 μl of nitrate standard solution were serially diluted in duplicate in a 96 -well microplate. Then, 100 μl of vanadium chloride were added to each well rapidly followed by 50 μl sulfanilamide and 50µl n -(1-naphthyl) ethylenediamine in 2 N hydrochloric acid. The absorbance at 540 nm was measured spectrophotometrically using an ELISA microplate reader (TECAN SunriseTM, Germany) following an incubation period of 30 min. The level of total nitrite/nitrate was expressed as µM and determined using […]

EGFR (T790M) = EGFR (T790M) (Homo sapiens, UniProt P00533, T790M); assay: EGFR kinase (T790M) inhibition assay, Kinase-Glo MAX
Chain of EGFR (T790M) (P00533 25-1210 T790M): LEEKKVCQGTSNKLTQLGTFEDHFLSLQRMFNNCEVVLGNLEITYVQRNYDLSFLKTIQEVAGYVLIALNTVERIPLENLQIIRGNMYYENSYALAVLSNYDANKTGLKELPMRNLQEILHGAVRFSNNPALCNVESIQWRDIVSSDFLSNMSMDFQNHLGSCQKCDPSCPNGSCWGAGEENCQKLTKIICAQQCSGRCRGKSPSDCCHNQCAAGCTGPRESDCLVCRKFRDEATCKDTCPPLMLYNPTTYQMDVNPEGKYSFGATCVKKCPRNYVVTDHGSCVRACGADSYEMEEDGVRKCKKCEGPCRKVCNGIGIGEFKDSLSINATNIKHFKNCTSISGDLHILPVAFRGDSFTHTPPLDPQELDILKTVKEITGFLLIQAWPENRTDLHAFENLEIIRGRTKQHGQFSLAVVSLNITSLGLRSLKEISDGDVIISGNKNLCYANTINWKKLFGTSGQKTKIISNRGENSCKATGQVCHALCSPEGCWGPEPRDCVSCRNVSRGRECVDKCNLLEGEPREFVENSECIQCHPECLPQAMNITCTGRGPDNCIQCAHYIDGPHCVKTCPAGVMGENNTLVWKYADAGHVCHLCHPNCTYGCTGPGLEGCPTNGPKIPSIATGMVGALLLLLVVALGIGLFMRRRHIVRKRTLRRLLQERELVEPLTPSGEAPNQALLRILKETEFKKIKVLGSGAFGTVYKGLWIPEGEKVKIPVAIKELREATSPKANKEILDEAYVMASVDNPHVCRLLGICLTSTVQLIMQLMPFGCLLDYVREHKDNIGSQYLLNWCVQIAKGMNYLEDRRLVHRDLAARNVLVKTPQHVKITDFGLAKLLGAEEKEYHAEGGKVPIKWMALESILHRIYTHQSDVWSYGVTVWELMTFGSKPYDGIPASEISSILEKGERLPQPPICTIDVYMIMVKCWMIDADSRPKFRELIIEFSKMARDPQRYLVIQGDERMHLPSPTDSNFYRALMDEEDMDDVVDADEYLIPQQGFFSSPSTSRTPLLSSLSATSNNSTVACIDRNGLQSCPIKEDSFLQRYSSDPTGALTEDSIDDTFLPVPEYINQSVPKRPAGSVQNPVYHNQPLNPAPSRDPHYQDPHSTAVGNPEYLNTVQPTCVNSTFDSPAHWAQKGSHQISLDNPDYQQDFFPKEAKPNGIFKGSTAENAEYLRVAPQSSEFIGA
Protocol: The reagent, Kinase-Glo MAX, was used[50], and luminescence was detected by applying the microplate reader.
The assay protocol was carried out by adding 25 μL of the master mixture: (6 μL Kinase assay buffer + 1 μL ATP (500 μM) + 1 μL PTK substrate + 17 μL water) to each well. Thereafter, 5 μL of the inhibitor solution was added to each well labeled as “test inhibitor”. Meanwhile, for the “positive control" and “blank”, 5 μL of the same solution without inhibitor (inhibitor buffer) was added. To the wells designated as "blank", add 20 μL of Kinase assay buffer. The amount of EGFR required for the assay was calculated and the enzyme was diluted to 1 ng/μL with Kinase assay buffer. The reaction was initiated by adding 20 μL of diluted EGFR enzyme to the wells designated as “positive control” and "test inhibitor control". The wells were incubated at 30°C for 40 minutes, then 50 μL of Kinase-Glo Max reagent was added to each well. The plate was incubated at room temperature for 15 minutes and luminescence was measured using the microplate reader.

Row | SMILES | MCF7 IC50 (MCF7) [µg/mL] | IC50 (MCF7) [µg/mL] | IC50 (VERO) [µg/mL] | VERO IC50 (VERO) [µg/mL] | FADU IC50 (FADU) [µg/mL] | IC50 (FADU) [µg/mL] | HEPG2 IC50 (HEPG2) [µg/mL] | IC50 (HEPG2) [µg/mL] | HCT116 IC50 (HCT116) [µg/mL] | IC50 (HCT116) [µg/mL] | cells in G2/M phase (HEPG2 cells) [%] | cells in G0/G1 (HEPG2 cells) [%] | effect on oxidative state (MDA, NO, SOD, GSH) ([1]; FADU and Caco2) | effect on oxidative state (MDA, NO, SOD, GSH) ([1]; MCF7, H460, HEP2, HEPG2, HCT, and Vero cells) | IC50 (EGFR (T790M)) [nM] | effect on oxidative state (MDA, NO, SOD, GSH) ([1]; Caco2) | effect on oxidative state (MDA, NO, SOD, GSH) ([1]; all tested cell lines except Caco2)
1 | N#Cc1c(-c2cccs2)cc(-c2ccco2)[nH]c1=O [Compound 14] | 3.70 | 7 (≈ 26.1 µM) | 4 (≈ 14.9 µM) | 4.60 | 3.90 | 5.7 (≈ 21.2 µM) | 3.80 | 3.6 (≈ 13.4 µM) | 3.90 | 7.4 (≈ 27.6 µM) | 25.9 | 69.8 | anti-oxidant effect | pro-oxidant effect | 156 ± 9 |  | 
2 | Oc1n[nH]c2nc(-c3ccco3)cc(-c3cccs3)c12 [Compound 8] | 4.10 | 3.8 (≈ 13.4 µM) | 4.3 (≈ 15.2 µM) | 3.90 | 5.60 | 3.8 (≈ 13.4 µM) | 3.80 | 4 (≈ 14.1 µM) | 7.20 | 4 (≈ 14.1 µM) | 34.4 | 61.4 |  |  | 27 ± 2 | antioxidant effect | pro-oxidant effect
